The values below are quoted from earlier work in patent US7348294B2, “Adsorbent and method for adsorbing cardiac glycoside” (Kaneka Corporation, priority 2000, dated 2008).

For this data set the following is noted: octanol-water; ligand before immobilization.

One may read the log P as a log measure of how a compound divides between an organic and an aqueous phase. For `CCCCN` [n-butylamine], the lipophilicity (log P) is 0.97.
